Measured values as given in patent US20260262643A1, “HERBICIDAL BENZOXAZINES” (FMC CORPORATION, priority 2022, published 2026).

Experiments:
[1] = test system: kochia; assay: Test A preemergence; type: in vivo, Bassia scoparia; details: visual injury after 10 days, 0 to 100 scale, 0 is no effect, 100 is complete control
Procedure, shortened: (§1)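 Weeds and crops in loam–sand blend were sprayed preemergence onto soil or postemergence at 2–10 cm (one- to two-leaf stage). Test chemicals were in a non-phytotoxic solvent with surfactant. After 10 days in the greenhouse, injury was rated visually against untreated controls on a 0 (no effect) to 100 (complete control) scale.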

[2] = test system: corn; assay: Test A postemergence; type: in vivo, Zea mays; details: postemergence, 10 days
Procedure, shortened: as §1

[3] = test system: ragweed; assay: Test A postemergence; type: in vivo, Ambrosia artemisiifolia; details: postemergence, 10 days
Procedure, shortened: as §1

[4] = test system: horseweed; assay: Test A postemergence; type: in vivo, Erigeron canadensis; details: postemergence, 10 days
Procedure, shortened: as §1

[5] = test system: wheat; assay: Test A preemergence; type: in vivo, Triticum aestivum; details: visual injury after 10 days, 0 to 100 scale, 0 is no effect, 100 is complete control
Procedure, shortened: as §1

[6] = test system: barnyardgrass; assay: Test A postemergence; type: in vivo, Echinochloa crusgalli; details: postemergence, 10 days
Procedure, shortened: as §1

[7] = test system: corn; assay: Test A preemergence; type: in vivo, Zea mays; details: visual injury after 10 days, 0 to 100 scale, 0 is no effect, 100 is complete control
Procedure, shortened: as §1

[8] = test system: ducksalad; assay: Test B flooded paddy test; type: in vivo, Heteranthera limosa; details: 250 g ai/ha, Flood, 13 days, 0 to 100 scale (0 no effect, 100 complete control)
Procedure, shortened: (§2)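 Two-leaf plants, 3 cm flood, in-water application, 13-day greenhouse hold, visual 0–100 rating vs untreated checks.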

[9] = test system: barnyardgrass; assay: Test A preemergence; type: in vivo, Echinochloa crusgalli; details: visual injury after 10 days, 0 to 100 scale, 0 is no effect, 100 is complete control
Procedure, shortened: as §1

[10] = test system: oat, wild; assay: Test A postemergence; type: in vivo, Avena fatua; details: postemergence, 10 days
Procedure, shortened: as §1

[11] = test system: foxtail, giant; assay: Test A postemergence; type: in vivo, Setaria faberi; details: postemergence, 10 days
Procedure, shortened: as §1

[12] = test system: soybean; assay: Test A preemergence; type: in vivo, Glycine max; details: visual injury after 10 days, 0 to 100 scale, 0 is no effect, 100 is complete control
Procedure, shortened: as §1

[13] = test system: ryegrass, Italian; assay: Test A postemergence; type: in vivo, Lolium multiflorum; details: postemergence, 10 days
Procedure, shortened: as §1

[14] = test system: galium; assay: Test A postemergence; type: in vivo, Galium aparine; details: postemergence, 10 days
Procedure, shortened: as §1

[15] = test system: soybean; assay: Test A postemergence; type: in vivo, Glycine max; details: postemergence, 10 days
Procedure, shortened: as §1

[16] = test system: wheat; assay: Test A postemergence; type: in vivo, Triticum aestivum; details: postemergence, 10 days
Procedure, shortened: as §1

[17] = test system: pigweed, palmer; assay: Test A postemergence; type: in vivo, Amaranthus palmeri; details: postemergence, 10 days
Procedure, shortened: as §1

[18] = test system: blackgrass; assay: Test A postemergence; type: in vivo, Alopecurus myosuroides; details: postemergence, 10 days
Procedure, shortened: as §1

[19] = test system: ragweed; assay: Test A preemergence; type: in vivo, Ambrosia artemisiifolia; details: visual injury after 10 days, 0 to 100 scale, 0 is no effect, 100 is complete control
Procedure, shortened: as §1

[20] = test system: oat, wild; assay: Test A preemergence; type: in vivo, Avena fatua; details: visual injury after 10 days, 0 to 100 scale, 0 is no effect, 100 is complete control
Procedure, shortened: as §1

[21] = test system: barnyardgrass; assay: Test B flooded paddy test; type: in vivo, Echinochloa crus-galli; details: 250 g ai/ha, Flood, 13 days, 0 to 100 scale (0 no effect, 100 complete control)
Procedure, shortened: as §2

[22] = test system: blackgrass; assay: Test A preemergence; type: in vivo, Alopecurus myosuroides; details: visual injury after 10 days, 0 to 100 scale, 0 is no effect, 100 is complete control
Procedure, shortened: as §1

[23] = test system: foxtail, giant; assay: Test A preemergence; type: in vivo, Setaria faberi; details: visual injury after 10 days, 0 to 100 scale, 0 is no effect, 100 is complete control
Procedure, shortened: as §1

[24] = test system: kochia; assay: Test A postemergence; type: in vivo, Bassia scoparia; details: postemergence, 10 days
Procedure, shortened: as §1

[25] = test system: sedge, umbrella; assay: Test B flooded paddy test; type: in vivo, Cyperus difformis; details: 250 g ai/ha, Flood, 13 days, 0 to 100 scale (0 no effect, 100 complete control)
Procedure, shortened: as §2

[26] = test system: pigweed, palmer; assay: Test A preemergence; type: in vivo, Amaranthus palmeri; details: visual injury after 10 days, 0 to 100 scale, 0 is no effect, 100 is complete control
Procedure, shortened: as §1

[27] = test system: ryegrass, Italian; assay: Test A preemergence; type: in vivo, Lolium multiflorum; details: visual injury after 10 days, 0 to 100 scale, 0 is no effect, 100 is complete control
Procedure, shortened: as §1

[28] = test system: rice; assay: Test B flooded paddy test; type: in vivo, Oryza sativa; details: 250 g ai/ha, Flood, 13 days, 0 to 100 scale (0 no effect, 100 complete control)
Procedure, shortened: as §2

[29] = 125 g ai/ha, 0 to 100 scale, 0 no effect, 100 complete control
[30] = 500 g ai/ha, visual injury, 0 to 100 scale (0 no effect, 100 complete control)

CC(C)Cc1ncn(-c2cccc(C(=O)N3C[C@H](C)Oc4c(Cl)cccc43)c2)n1 [Compound 112]
Plant response rating, Kochia ([1]; 125 g ai/ha): 0
Plant response rating, Kochia ([1]; 500 g ai/ha): 60
Corn plant response rating [2, 29]: 20
Plant response rating, Corn [2, 30]: 40
Ragweed plant response rating [3, 29]: 0
Plant response rating, Ragweed [3, 30]: 0
Horseweed plant response rating [4, 29]: 0
Plant response rating, Horseweed [4, 30]: 0
Plant response rating, Wheat ([5]; 125 g ai/ha): 20
Plant response rating, Wheat ([5]; 500 g ai/ha): 40
Barnyardgrass plant response rating [6, 29]: 10
Plant response rating, Barnyardgrass [6, 30]: 40
Plant response rating, Corn ([7]; 125 g ai/ha): 0
Plant response rating, Corn ([7]; 500 g ai/ha): 0
Plant response rating, Ducksalad [8]: 0
Plant response rating, Barnyardgrass ([9]; 125 g ai/ha): 40
Plant response rating, Barnyardgrass ([9]; 500 g ai/ha): 100
Oat, Wild plant response rating [10, 29]: 10
Plant response rating, Oat, Wild [10, 30]: 30
Foxtail, Giant plant response rating [11, 29]: 20
Plant response rating, Foxtail, Giant [11, 30]: 70
Plant response rating, Soybean ([12]; 125 g ai/ha): 0
Plant response rating, Soybean ([12]; 500 g ai/ha): 50
Ryegrass, Italian plant response rating [13, 29]: 10
Plant response rating, Ryegrass, Italian [13, 30]: 60
Galium plant response rating [14, 29]: 90
Plant response rating, Galium [14, 30]: 100
Soybean plant response rating [15, 29]: 90
Plant response rating, Soybean [15, 30]: 100
Wheat plant response rating [16, 29]: 10
Plant response rating, Wheat [16, 30]: 20
Pigweed, Palmer plant response rating [17, 29]: 50
Plant response rating, Pigweed, Palmer [17, 30]: 90
Blackgrass plant response rating [18, 29]: 0
Plant response rating, Blackgrass [18, 30]: 60
Plant response rating, Ragweed ([19]; 125 g ai/ha): 0
Plant response rating, Ragweed ([19]; 500 g ai/ha): 40
Plant response rating, Oat, Wild ([20]; 125 g ai/ha): 0
Plant response rating, Oat, Wild ([20]; 500 g ai/ha): 20
Plant response rating, Barnyardgrass [21]: 0
Plant response rating, Blackgrass ([22]; 125 g ai/ha): 20
Plant response rating, Blackgrass ([22]; 500 g ai/ha): 80
Plant response rating, Foxtail, Giant ([23]; 125 g ai/ha): 50
Plant response rating, Foxtail, Giant ([23]; 500 g ai/ha): 90
Kochia plant response rating [24, 29]: 70
Plant response rating, Kochia [24, 30]: 90
Plant response rating, Sedge, Umbrella [25]: 0
Plant response rating, Pigweed, Palmer ([26]; 125 g ai/ha): 50
Plant response rating, Pigweed, Palmer ([26]; 500 g ai/ha): 100
Plant response rating, Ryegrass, Italian ([27]; 125 g ai/ha): 40
Plant response rating, Ryegrass, Italian ([27]; 500 g ai/ha): 90
Plant response rating, Rice [28]: 0
